Columns and labels:
Type in all cases: biochemical
CUL5 = biological target: T1, CUL5 (Homo sapiens, UniProt Q93034+Q9UBF6, Q93034:L407E/Q93034:L439K/Q93034:V440K); assay: in vitro CUL5 neddylation assay
T1 sequence (Q93034 401-780 L407E/L439K/V440K): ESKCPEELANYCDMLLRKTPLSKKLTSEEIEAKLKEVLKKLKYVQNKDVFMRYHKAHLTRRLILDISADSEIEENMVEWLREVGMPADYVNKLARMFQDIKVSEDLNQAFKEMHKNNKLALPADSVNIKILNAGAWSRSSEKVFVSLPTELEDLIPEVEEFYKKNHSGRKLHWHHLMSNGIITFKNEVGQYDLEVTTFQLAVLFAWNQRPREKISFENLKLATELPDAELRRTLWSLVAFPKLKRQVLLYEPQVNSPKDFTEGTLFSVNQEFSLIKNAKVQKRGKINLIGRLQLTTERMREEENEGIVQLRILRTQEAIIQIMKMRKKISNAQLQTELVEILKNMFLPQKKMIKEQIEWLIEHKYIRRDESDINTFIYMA
T1 sequence (Q9UBF6 2-113): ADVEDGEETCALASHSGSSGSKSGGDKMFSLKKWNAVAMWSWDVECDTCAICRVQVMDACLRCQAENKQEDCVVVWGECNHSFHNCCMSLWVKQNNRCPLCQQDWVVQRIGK

SAG = biological target: T2, SAG (Homo sapiens, UniProt Q93034+Q9UBF6, Q93034:L407E/Q93034:L439K/Q93034:V440K); assay: in vitro CUL5 neddylation assay
T2 sequence (Q9UBF6 2-113): T1 sequence (Q9UBF6 2-113)
T2 sequence (Q93034 401-780 L407E/L439K/V440K): T1 sequence (Q93034 401-780 L407E/L439K/V440K)

RBX1 = RBX1 (Homo sapiens, UniProt P62877+Q13616, Q13616:L421E/Q13616:V451E/Q13616:V452K/Q13616:Y455K); assay: in vitro CUL1 neddylation assay
Chain of RBX1 (Q13616 411-776 L421E/V451E/V452K/Y455K): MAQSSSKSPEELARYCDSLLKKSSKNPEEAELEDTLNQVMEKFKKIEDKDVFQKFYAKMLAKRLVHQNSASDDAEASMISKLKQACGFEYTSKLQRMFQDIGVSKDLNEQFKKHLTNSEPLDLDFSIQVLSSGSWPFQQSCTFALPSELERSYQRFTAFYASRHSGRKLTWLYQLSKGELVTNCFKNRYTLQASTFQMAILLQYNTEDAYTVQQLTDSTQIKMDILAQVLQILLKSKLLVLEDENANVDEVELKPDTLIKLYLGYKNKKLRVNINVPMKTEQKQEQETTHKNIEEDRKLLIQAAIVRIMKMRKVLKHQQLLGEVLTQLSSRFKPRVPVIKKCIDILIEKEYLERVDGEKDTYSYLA
Chain of RBX1 (P62877 whole entry): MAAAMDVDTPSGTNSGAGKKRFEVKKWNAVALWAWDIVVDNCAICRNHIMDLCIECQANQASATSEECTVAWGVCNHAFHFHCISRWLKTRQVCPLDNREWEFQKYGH

## Cc1cc2c(C(C)C)c(O)c(O)c(C=O)c2c(O)c1-c1c(C)cc2c(C(C)C)c(O)c(O)c(C=O)c2c1O [gossypol]
CUL5
  IC50: 4.25 µM
SAG
  IC50: 4.25 µM
RBX1
  IC50: 3.4 µM

From article PMC7076571 (Neoplasia (New York, N.Y.), 2020)
